Laboratory results: US12428394B2, “2,4-disubstituted pyrimidine derivative, preparation method therefor and use thereof” (CHENGDU ZENITAR BIOMEDICAL TECHNOLOGY CO., LTD., priority 2019, dated 2025)

Columns and labels:
[1] = test system: MOLM-13 cells (FLT3-ITD-/+); test: Inhibition of cell proliferation by MTT experiment, MOLM-13; format: cell-based, human; conditions: Homo sapiens, MOLM-13; MTT, 72 h; read-out: IC50 value on cell proliferation inhibition, MOLM-13 FLT3-ITD-/+
How it was run: (§1)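 MTT assay in MV4-11, MOLM-13 (FLT3-ITD) and SET-2 (JAK2 V617F) cells at 10,000–15,000 cells/well in IMDM with 10% FBS. Cells are exposed to compound for 72 h at 37 °C, then to MTT for 1–3 h. IC50 is fitted from inhibition rates across concentrations.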

[2] = test system: MV4-11 cells (FLT3-ITD+/+); test: Inhibition of cell proliferation by MTT experiment, MV4-11; format: cell-based, human; conditions: Homo sapiens, MV4-11; MTT, 72 h; read-out: IC50 value on cell proliferation inhibition, MV4-11 FLT3-ITD+/+
How it was run: as §1

FLT3 = biological target: T1, FLT3 (Homo sapiens, UniProt P36888); test: In vitro kinase activity experiment, FLT3; format: biochemical; conditions: for inhibition at 0.5 µM: 40 min, inhibition rate of enzyme at 500 nM, measured by Eurofins, read-out: Kinase activity @ 500 nM (%) FLT3
T1 construct: purchased Eurofins
T1 sequence (P36888 27-993): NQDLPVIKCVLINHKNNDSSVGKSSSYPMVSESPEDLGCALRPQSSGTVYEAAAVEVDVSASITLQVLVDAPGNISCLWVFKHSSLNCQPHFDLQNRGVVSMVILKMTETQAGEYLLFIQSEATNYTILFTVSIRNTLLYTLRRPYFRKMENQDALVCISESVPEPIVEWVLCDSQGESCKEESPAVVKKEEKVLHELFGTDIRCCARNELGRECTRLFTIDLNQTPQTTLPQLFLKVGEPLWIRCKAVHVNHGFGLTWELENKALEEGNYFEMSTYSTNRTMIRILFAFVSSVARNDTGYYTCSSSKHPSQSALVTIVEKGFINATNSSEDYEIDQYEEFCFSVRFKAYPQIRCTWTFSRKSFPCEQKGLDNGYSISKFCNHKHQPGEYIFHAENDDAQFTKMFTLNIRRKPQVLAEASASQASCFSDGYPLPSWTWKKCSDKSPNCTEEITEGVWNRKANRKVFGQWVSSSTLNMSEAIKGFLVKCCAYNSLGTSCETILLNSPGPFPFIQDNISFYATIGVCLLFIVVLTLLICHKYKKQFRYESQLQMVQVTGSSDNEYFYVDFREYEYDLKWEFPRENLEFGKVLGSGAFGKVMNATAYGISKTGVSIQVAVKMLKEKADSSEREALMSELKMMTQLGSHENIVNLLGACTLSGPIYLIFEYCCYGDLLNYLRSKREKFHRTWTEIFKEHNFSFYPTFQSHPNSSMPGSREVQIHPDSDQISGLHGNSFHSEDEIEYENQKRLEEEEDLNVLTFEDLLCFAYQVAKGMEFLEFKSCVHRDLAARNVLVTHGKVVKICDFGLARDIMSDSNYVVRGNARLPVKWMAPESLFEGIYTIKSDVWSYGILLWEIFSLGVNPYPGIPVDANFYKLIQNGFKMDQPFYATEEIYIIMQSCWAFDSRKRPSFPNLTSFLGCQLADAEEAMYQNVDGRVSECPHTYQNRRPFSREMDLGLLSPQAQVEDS
How it was run: (§2)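 Reactions began on MgATP addition after the kinase, substrate, γ33P-ATP, 10 mM magnesium acetate and compound series were mixed in MOPS buffer pH 7.0 with EDTA and MnCl2. After 40 min at room temperature, phosphate quench, filter-mat capture and washing, incorporated 33P was measured by scintillation counting.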

JAK2 = biological target: T2, JAK2 (Homo sapiens, UniProt O60674); test: In vitro kinase activity experiment, JAK2; format: biochemical; conditions: for Kinase activity @ 500 nM (%) JAK2: inhibition rate of enzyme at 500 nM, measured by Eurofins
T2 construct: purchased Eurofins
T2 sequence (O60674 whole entry): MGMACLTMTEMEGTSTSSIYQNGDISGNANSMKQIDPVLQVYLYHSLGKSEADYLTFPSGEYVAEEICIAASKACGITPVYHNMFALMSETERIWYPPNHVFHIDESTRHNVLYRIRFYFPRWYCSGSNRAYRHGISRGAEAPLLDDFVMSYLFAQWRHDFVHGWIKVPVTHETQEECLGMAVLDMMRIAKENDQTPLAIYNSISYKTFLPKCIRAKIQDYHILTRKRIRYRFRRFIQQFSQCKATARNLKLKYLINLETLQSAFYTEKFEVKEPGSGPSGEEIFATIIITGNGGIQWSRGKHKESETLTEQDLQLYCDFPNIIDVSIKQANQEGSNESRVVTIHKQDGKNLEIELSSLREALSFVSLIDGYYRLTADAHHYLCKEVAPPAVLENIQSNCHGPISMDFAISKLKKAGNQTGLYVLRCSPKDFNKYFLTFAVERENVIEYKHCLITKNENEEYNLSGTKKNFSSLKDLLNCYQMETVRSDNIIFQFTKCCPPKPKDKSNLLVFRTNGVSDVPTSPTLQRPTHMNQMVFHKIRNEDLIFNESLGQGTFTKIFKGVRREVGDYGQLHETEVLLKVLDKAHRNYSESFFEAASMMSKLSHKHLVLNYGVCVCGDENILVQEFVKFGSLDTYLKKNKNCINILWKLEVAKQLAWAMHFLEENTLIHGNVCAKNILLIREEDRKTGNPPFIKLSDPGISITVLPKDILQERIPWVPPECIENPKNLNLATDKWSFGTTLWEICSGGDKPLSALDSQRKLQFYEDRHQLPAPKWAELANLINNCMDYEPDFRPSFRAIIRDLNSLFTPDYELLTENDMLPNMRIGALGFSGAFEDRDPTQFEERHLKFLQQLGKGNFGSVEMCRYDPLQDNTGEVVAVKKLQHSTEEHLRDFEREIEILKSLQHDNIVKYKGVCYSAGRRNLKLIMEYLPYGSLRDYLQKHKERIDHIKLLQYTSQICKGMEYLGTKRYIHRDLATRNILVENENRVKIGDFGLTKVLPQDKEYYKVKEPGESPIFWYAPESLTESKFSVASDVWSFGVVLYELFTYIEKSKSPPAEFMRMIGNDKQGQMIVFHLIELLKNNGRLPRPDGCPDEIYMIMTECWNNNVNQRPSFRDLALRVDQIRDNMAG
How it was run: as §2

JAK1 = biological target: T3, JAK1 (Homo sapiens, UniProt P23458); test: In vitro kinase activity experiment, JAK1; format: biochemical
T3 construct: purchased Eurofins
T3 sequence (P23458 whole entry): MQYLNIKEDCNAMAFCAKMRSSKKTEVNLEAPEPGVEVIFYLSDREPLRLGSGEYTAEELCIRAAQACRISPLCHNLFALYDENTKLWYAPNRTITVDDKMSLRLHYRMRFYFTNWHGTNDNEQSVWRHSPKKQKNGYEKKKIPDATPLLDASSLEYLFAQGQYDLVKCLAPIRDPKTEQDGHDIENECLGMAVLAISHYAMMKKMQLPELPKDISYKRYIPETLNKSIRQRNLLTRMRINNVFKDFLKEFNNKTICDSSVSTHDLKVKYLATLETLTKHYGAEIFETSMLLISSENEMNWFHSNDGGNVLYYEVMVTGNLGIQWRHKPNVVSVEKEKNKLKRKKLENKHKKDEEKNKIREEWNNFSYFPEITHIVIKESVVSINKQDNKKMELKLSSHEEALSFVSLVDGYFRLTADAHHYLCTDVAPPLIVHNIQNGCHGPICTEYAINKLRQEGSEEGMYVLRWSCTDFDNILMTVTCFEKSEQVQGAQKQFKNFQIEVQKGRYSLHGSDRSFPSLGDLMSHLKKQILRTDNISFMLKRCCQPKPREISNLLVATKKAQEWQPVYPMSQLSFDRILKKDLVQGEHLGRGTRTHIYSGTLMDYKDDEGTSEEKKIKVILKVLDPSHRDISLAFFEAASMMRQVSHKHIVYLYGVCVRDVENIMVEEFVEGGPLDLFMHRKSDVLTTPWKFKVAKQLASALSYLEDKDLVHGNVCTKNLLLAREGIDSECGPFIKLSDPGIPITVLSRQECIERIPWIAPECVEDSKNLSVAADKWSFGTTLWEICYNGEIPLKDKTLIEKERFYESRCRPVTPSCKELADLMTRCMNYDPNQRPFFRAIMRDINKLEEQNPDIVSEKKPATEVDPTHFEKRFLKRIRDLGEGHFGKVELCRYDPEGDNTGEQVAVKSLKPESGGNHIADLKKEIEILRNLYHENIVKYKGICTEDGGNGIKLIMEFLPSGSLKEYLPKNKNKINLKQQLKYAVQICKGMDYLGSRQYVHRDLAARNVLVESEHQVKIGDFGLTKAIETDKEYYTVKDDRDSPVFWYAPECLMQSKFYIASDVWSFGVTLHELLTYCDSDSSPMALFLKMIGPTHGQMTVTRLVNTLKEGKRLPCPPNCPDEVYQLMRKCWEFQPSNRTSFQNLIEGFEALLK
Experimental: (§3) Buffer solution ([…], pH 7.0, 0.2 mm EDTA, 10 mM mncl2), kinase to be tested, substrate of kinase to be tested, 10 mM magnesium acetate and γ33P-ATP solution, and compounds with different concentrations were added to a reaction tube in turn, then MgATP was added to initiate the enzyme reaction process, and incubated at room temperature for 40 min. Then, the reaction was terminated with 5 μl of […], and 10 μl of the reaction solution was titrated onto the Filtermat A membrane, washed with 75 mM phosphate solution for three times, each time for 5 min., and then washed with methanol once. Finally, the Filtermat A membrane was dried and the scintillation count was carried out.

JAK3 = biological target: T4, JAK3 (Homo sapiens, UniProt P52333); test: In vitro kinase activity experiment, JAK3; format: biochemical
T4 construct: purchased Eurofins
T4 sequence (P52333 1-1124): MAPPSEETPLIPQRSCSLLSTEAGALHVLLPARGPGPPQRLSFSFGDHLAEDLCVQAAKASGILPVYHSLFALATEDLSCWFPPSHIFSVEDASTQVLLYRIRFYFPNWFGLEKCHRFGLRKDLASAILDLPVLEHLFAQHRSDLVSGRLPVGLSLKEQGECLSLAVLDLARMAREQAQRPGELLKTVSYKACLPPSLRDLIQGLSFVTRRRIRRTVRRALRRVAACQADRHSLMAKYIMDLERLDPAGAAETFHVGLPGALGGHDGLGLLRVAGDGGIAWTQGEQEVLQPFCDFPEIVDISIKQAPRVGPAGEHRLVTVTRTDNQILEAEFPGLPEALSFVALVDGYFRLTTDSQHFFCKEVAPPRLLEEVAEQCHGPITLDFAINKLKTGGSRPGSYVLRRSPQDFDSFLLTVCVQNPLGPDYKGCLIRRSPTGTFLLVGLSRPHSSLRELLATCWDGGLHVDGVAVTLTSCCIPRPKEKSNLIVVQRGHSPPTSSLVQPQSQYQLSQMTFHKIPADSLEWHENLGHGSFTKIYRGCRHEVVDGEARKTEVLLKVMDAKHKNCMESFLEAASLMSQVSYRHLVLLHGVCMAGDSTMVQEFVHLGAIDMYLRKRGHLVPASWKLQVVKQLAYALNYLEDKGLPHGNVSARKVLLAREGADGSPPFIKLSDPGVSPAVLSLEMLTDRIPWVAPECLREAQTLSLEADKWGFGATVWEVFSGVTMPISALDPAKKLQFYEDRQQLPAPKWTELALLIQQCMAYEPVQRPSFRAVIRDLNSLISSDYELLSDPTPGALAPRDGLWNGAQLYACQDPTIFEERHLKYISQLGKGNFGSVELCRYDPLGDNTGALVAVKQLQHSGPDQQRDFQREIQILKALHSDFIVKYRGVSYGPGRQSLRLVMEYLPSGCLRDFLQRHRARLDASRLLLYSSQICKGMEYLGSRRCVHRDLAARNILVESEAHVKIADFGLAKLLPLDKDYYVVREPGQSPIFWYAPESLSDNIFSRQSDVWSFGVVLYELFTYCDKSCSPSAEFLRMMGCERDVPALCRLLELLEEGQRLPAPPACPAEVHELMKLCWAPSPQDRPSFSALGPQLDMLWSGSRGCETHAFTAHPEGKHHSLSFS
Experimental: as §3

SET-2 cells (JAK2 V617F) = test: Inhibition of cell proliferation by MTT experiment, SET-2; format: cell-based; conditions: Homo sapiens, SET-2; MTT, 72 h; read-out: IC50 value on cell proliferation inhibition, SET-2 (V617F)
How it was run: as §1

[3] = test system: Ba/F3-EpoR-JAK2V617F cells; test: Ba/F3-EpoR-JAK2V617F-driven malignant tumor mouse model; format: in vivo, Babl/c-nude mice; conditions: 30 mg/Kg, oral twice a day
Experimental: Babl/c-nude mice (Beijing Huafukang Biotechnology Co., Ltd.) were received and acclimated to the environment until these mice were normalized in diet and activity, and the modeling began. Ba/F3-EpoR-JAK2V617F cells (State Key Laboratory of Biotherapy, Sichuan University) were routinely incubated and grew to 80% fusion degree. Then the cells were centrifuged at 1000 rpm for 3 min., collected, resuspended by PBS and counted by a cell counter; while the survival rate of the cells was calculated. Only when the proportion of living cells exceeds 90%, can the cells be used in the experiment, with the cell concentration adjusted to 1×10^7 cells/mL. After the cells were collected, the cell suspension was pre-cooled on ice. Each mouse was inoculated as per 1.0×10^6, and batch induction modeling was carried out.

JAK2V617F = test: JAK2V617F-induced myelofibrosis mouse model; format: in vivo, BALB/c mice; conditions: 30 mg/Kg, oral twice a day, after 8 weeks of treatment
Excerpt: JAK2 mutant JAK2V617F gene vector MSCV-JAK2V617F-GFP (Chengdu Wandao Biotechnology Development Co., Ltd.) and BALB/c mice (Jiangsu Jicui Yaokang Biotechnology Co., Ltd.) were provided as donors. The mouse bone marrow cells were sampled and infected with JAK2V617F virus, and the infected cells were reinfused into BALB/c recipient mice irradiated by X-rays through tail vein. Then, the JAK2V617F-positive myelofibrosis mouse model was induced. […] The administration route was oral administration twice a day, and the mice in the blank control group and the model group took the same volume of normal saline orally. […] Therefore, modifications or improvements made without departing from the spirit of the present invention are within the scope of protection of the present invention.

IC50 [1] | IC50 [2] | IC50 (FLT3) | inhibition at 0.5 µM (FLT3) | IC50 (JAK2) | Kinase activity @ 500 nM (%) JAK2 (JAK2) | IC50 (JAK1) | IC50 (JAK3) | SMILES | IC50 (SET-2 cells (JAK2 V617F)) | inhibition of spleen growth [3] | inhibition of growth rate of spleen (JAK2V617F)
10 to 100 nM | 1 to 10 nM | 9 nM | 102% | 1 nM | 106% | 47 nM | 23 nM | Cc1cnc(Nc2ccc(N3CCC(N(C)CC4CC4)CC3)c(F)c2)nc1-c1cnn(C(C)C)c1 [CLJ-52, 5-methyl-N-(3-fluoro-4-(4-N-cyclopropanemethyl-4-N-methylaminopiperidine-1-yl)phenyl)-4-(1-isopropyl-1H-pyrazole-4-yl) pyrimidine-2-amine] | 100 to 1000 nM |  | 
10 to 100 nM | 10 to 100 nM | 11 nM | 97% | 3 nM | 100% | 121 nM | 103 nM | Cc1cnc(Nc2ccc(N3CCC(N(C)CCO)CC3)c(F)c2)nc1-c1cn(C(C)C)nc1S(C)(=O)=O [CLJ-91, 5-methyl-N-(3-fluoro-4-(4-N-hydroxyethyl-4-N-methylaminopiperidine-1-yl)phenyl)-4-(1-isopropyl-3-methylsulfonyl-1H-pyrazole-4-yl) pyrimidine-2-amine] | 100 to 1000 nM |  | 
10 to 100 nM | 10 to 100 nM | 15 nM | 94% | 2 nM | 99% | 76 nM | 39 nM | Cc1cnc(Nc2ccc(NS(=O)(=O)c3ccc(C(F)(F)F)cc3)c(F)c2)nc1-c1cnn(C(C)C)c1 [CLJ-94, N-(2-fluoro-4-((4-(1-isopropyl-1H-pyrazole-4-yl)-5-methylpyrimidine-2-yl)amino)phenyl)-4-(trifluoromethyl) benzenesulfonamide] | 100 to 1000 nM |  | 
 |  |  |  |  |  |  |  | Cc1cnc(Nc2ccc(OCCN3CCCC3)cc2)nc1Nc1cccc(S(=O)(=O)NC(C)(C)C)c1 [Fedratinib, reference compound] |  | 40.23% | 29.46%
